ChEMBL document CHEMBL1781871, “Discovery and SAR of novel mGluR5 non-competitive antagonists not based on an MPEP chemotype” (Bioorg Med Chem Lett, 2009)

Legend:
[1] = target: Metabotropic glutamate receptor 3 (Homo sapiens, UniProt Q14832); experiment: Inhibition of mGluR3
[2] = target: T1, Metabotropic glutamate receptor 5 (Homo sapiens, UniProt P41594); experiment: Non-competitive antagonist activity at mGluR5 at 30 uM relative to glutamate; assay type: functional; parameters: scale not given: the % may be the effect or the level left
Target sequence in this assay (P41594 21-1212 limits assumed): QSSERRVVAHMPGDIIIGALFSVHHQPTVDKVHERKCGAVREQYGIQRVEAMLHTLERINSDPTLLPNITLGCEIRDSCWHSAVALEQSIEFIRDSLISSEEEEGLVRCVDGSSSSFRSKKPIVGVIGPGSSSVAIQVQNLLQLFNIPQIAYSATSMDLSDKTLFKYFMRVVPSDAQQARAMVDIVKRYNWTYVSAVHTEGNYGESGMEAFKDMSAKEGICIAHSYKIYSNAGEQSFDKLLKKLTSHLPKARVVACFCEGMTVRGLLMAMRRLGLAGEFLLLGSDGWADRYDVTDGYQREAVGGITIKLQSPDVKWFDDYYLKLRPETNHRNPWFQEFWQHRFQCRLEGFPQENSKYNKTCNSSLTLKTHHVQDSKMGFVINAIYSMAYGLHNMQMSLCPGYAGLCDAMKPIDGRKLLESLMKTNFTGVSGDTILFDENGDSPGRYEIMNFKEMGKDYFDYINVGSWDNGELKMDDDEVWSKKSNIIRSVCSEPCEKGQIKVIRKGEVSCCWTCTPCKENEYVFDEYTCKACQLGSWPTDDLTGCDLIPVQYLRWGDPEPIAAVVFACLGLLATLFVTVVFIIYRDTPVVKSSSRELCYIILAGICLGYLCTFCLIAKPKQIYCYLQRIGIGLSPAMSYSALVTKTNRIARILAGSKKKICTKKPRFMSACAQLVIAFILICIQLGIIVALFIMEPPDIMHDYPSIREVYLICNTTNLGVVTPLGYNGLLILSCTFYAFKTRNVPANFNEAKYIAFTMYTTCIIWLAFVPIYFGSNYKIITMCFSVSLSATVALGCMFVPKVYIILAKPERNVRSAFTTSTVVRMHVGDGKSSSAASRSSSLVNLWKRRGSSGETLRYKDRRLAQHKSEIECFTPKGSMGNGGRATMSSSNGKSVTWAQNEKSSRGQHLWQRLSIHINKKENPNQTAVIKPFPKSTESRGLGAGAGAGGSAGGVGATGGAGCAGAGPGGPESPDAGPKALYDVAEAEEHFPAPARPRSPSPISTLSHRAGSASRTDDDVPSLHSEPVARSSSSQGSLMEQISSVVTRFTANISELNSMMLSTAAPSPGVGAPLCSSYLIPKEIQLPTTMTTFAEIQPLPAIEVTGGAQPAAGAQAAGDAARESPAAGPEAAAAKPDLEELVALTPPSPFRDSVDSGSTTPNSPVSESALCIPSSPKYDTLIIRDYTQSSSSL

[3] = target: Metabotropic glutamate receptor 2 (Homo sapiens, UniProt Q14416); experiment: Inhibition of mGluR2
[4] = target: Metabotropic glutamate receptor 8 (Homo sapiens, UniProt O00222); experiment: Inhibition of mGluR8
[5] = target: Metabotropic glutamate receptor 4 (Homo sapiens, UniProt Q14833); experiment: Inhibition of mGluR4
[6] = target: Metabotropic glutamate receptor 1 (Homo sapiens, UniProt Q13255); experiment: Inhibition of mGluR1
[7] = target: Metabotropic glutamate receptor 7 (Homo sapiens, UniProt Q14831); experiment: Inhibition of mGluR7
[8] = target: T1, Metabotropic glutamate receptor 5; experiment: Non-competitive antagonist activity at mGluR5; assay type: functional
Target sequence in this assay (P41594 whole entry): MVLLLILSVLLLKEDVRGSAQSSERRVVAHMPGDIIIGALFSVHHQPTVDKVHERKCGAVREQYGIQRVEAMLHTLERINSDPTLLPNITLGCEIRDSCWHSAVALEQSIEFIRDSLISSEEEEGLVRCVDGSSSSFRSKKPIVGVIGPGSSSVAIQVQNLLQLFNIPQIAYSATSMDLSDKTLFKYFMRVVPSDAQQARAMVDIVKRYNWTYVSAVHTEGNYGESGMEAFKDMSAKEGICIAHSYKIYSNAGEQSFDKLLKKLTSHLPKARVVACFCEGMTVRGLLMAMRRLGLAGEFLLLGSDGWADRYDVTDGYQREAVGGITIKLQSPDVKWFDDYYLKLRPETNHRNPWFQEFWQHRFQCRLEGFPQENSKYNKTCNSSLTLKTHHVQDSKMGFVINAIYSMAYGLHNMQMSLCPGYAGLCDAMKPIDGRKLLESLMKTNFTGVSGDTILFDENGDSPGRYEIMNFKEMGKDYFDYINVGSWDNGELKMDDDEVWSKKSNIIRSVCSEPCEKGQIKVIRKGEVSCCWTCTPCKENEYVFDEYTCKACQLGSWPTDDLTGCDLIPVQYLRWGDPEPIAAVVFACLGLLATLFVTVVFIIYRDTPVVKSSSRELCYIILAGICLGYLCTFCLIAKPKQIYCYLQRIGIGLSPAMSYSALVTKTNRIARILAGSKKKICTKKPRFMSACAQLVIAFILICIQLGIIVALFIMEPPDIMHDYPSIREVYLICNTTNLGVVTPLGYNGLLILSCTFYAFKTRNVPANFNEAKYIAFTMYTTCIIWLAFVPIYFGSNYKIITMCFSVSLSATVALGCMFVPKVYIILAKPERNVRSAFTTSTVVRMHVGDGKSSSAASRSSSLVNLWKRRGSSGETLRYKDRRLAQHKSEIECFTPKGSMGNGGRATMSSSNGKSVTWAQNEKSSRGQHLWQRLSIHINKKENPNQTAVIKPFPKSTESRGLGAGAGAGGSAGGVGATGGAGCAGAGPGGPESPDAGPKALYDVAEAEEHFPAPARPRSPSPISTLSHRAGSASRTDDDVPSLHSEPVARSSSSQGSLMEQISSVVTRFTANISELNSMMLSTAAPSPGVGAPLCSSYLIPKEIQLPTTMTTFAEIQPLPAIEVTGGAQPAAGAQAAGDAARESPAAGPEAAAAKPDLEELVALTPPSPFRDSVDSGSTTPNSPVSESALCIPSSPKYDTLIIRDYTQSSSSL

[9] = target: T1, Metabotropic glutamate receptor 5; experiment: Positive allosteric modulation of mGluR5
Target sequence in this assay (P41594 whole entry): as above

[10] = target: T1, Metabotropic glutamate receptor 5; experiment: Positive allosteric modulation of mGluR5 at 30 uM relative to glutamate
Target sequence in this assay (P41594 21-1212 limits assumed): as the sequence (P41594 21-1212 limits assumed) above

Sequence of Metabotropic glutamate receptor 7 (Q14831 whole entry): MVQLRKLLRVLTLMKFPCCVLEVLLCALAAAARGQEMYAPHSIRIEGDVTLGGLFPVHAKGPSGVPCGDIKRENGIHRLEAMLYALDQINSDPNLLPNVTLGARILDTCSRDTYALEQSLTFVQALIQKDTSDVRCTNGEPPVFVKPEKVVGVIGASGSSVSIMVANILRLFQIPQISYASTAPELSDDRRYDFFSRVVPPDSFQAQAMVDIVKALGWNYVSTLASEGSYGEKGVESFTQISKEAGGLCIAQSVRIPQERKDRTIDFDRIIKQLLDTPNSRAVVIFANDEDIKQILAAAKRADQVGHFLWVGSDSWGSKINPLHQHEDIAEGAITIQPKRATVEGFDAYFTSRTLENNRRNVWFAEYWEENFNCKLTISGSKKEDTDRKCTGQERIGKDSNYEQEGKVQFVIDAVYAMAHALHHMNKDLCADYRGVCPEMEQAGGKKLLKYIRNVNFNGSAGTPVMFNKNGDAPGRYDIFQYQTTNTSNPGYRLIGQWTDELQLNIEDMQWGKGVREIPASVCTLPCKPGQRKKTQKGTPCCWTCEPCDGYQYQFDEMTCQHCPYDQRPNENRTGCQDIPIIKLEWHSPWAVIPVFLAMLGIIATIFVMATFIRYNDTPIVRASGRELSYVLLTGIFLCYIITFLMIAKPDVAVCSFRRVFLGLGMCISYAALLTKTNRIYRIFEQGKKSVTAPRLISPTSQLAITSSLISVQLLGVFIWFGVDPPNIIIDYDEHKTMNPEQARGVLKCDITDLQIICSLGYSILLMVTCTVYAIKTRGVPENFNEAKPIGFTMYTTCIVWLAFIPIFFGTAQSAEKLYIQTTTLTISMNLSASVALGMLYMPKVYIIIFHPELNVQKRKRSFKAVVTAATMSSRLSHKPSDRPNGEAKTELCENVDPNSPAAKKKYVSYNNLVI
Sequence of Metabotropic glutamate receptor 3 (Q14832 whole entry): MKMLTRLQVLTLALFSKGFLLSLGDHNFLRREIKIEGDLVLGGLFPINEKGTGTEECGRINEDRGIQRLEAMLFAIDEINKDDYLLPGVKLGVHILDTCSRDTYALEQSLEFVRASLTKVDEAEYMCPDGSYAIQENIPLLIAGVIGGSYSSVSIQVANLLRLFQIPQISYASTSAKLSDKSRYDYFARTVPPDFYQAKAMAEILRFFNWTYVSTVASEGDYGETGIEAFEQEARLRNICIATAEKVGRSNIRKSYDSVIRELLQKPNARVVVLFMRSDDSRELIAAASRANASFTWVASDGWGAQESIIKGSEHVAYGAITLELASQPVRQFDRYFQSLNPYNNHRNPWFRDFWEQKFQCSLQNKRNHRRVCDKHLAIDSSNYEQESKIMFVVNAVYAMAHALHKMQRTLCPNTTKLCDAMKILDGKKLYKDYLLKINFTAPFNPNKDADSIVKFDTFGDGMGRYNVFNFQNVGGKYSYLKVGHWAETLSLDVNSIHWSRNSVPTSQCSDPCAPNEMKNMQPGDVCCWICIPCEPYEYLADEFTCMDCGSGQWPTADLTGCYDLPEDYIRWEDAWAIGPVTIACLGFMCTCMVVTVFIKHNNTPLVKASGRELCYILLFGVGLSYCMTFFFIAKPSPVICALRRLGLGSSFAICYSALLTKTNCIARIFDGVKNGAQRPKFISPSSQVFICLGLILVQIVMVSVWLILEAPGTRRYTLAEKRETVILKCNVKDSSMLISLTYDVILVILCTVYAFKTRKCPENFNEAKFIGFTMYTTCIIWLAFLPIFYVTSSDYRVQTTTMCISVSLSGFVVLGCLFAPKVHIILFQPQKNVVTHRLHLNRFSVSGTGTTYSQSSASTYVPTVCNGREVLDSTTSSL

| Activity [2] | IC50 [8] | SMILES | further results |
| --- | --- | --- | --- |
| – | > 30 µM | O=C(N1CCN(c2ccccc2Cl)CC1)C12CC3CC(CC(C3)C1)C2 | – |
| 3.75% | 0.99 µM | O=C(N1CCN(c2ccccn2)CC1)C12CC3CC(CC(C3)C1)C2 | – |
| – | > 30 µM | O=C(N1CCN(c2ccncc2)CC1)C12CC3CC(CC(C3)C1)C2 | – |
| 2.64% | 1.54 µM | O=C(c1ccco1)N1CCCC2(CCCCC2)C1 | – |
| 30.2% | > 10 µM | O=C(N1CCN(c2cccnc2)CC1)C12CC3CC(CC(C3)C1)C2 | – |
| 56.2% | > 10 µM | Cc1ccc(C(=O)N2CCCC3(CCCCC3)C2)cc1 | – |
| 1.58% | 0.84 µM | Cc1cc(C(F)(F)F)c2c(N)c(C(=O)c3ccc(F)cc3)oc2n1 | – |
| – | > 30 µM | O=C(C1CCCCC1)N1CCCC2(CCCCC2)C1 | – |
| 4.23% | – | O=C(CSc1ccccc1)N1CCCC2(CCCCC2)C1 | – |
| – | – | Cc1cc(=O)[nH]c2oc(C(=O)c3ccc(F)cc3)c(N)c12 | EC50 [9]: 6.1 µM |
| 36% | > 10 µM | Cc1cc(C)c2c(N)c(C(=O)c3ccccc3)oc2n1 | – |
| 3.68% | – | N#Cc1ccccc1N1CCN(C(=O)C23CC4CC(CC(C4)C2)C3)CC1 | – |
| 26.1% | > 10 µM | O=C(C1CCCC1)N1CCCC2(CCCCC2)C1 | – |
| – | – | Nc1c(C(=O)c2ccc(F)cc2)oc2ncc(Br)cc12 | Activity [10]: 73.5%; EC50 [9]: 7.6 µM |
| – | – | Cc1cc(O)nc2oc(C(=O)c3ccc(F)cc3)c(N)c12 | Activity [10]: 32.9% |
| 52% | > 10 µM | COc1ccccc1N1CCN(C(=O)C23CC4CC(CC(C4)C2)C3)CC1 | – |
| 19.4% | 9.3 µM | Cc1cc(C)c2c(N)c(C(=O)c3ccc(F)cc3F)oc2n1 | – |
| 40.6% | > 10 µM | O=C(C1CC1)N1CCCC2(CCCCC2)C1 | – |
| 52.1% | > 10 µM | O=C(Cc1cccs1)N1CCCC2(CCCCC2)C1 | – |
| 2.69% | 1.18 µM | O=C(c1cccs1)N1CCCC2(CCCCC2)C1 | – |
| – | – | COCc1c(Cl)c(C)nc2oc(C(=O)c3ccc(F)cc3)c(N)c12 | Activity [10]: 38.3%; EC50 [9]: 6.5 µM |
| – | > 30 µM | O=C(c1cccnc1)N1CCCC2(CCCCC2)C1 | – |
| 2.39% | 5.02 µM | O=C(c1cnc2ccccc2n1)N1CCCC2(CCCCC2)C1 | – |

| SMILES | Activity [2] | IC50 [8] | further results |
| --- | --- | --- | --- |
| O=C(C1CCC1)N1CCCC2(CCCCC2)C1 | 1.12% | – | IC50 [1]: > 30 µM; IC50 [3]: > 30 µM; IC50 [4]: > 30 µM; IC50 [5]: > 30 µM; IC50 [6]: > 30 µM; IC50 [7]: > 30 µM |
| O=C(N1CCN(c2nccs2)CC1)C12CC3CC(CC(C3)C1)C2 | 1.16% | – | IC50 [1]: > 30 µM; IC50 [3]: > 30 µM; IC50 [4]: > 30 µM; IC50 [5]: > 30 µM; IC50 [7]: > 30 µM |
